Assay results reported in the supplement of paper PMC10627819.

Assays:
[1] = test system: B. subtilis 168; test: fitness (endpoint OD595 vs no drug) (fraction); higher = more growth
Outline: (§1)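 Growth medium was TSB, LB Lennox or CY, and plates were kept at 37 °C. Inoculation was at OD595 0.01 in 384-well plates, at 30 µl per well or 55 µl for S. pneumoniae. OD595 was monitored every 30 min for 14 h and background-subtracted using the first reading. Fitness is the optical density on entering stationary phase divided by the robust mean of no-drug controls, with values capped at 1.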

[2] = test system: S. aureus DSM 20231; test: as above
Outline: as §1

[3] = test system: S. aureus Newman; test: as above
Outline: as §1

[4] = test system: S. pneumoniae D39V; test: as above
Outline: as §1

[5] = test system: B. subtilis 168; test: Bliss interaction score (quartile over a dose matrix) (fitness difference); higher = more antagonism (negative = synergy)
Outline: (§2)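 Combination data were used to infer fitness under each single drug. Fitness is the OD595 at entry into stationary phase divided by the robust mean of the plate's no-drug wells, with a cap of 1. The Bliss score is the observed minus the expected product fitness, summarised by quartiles over technical, biological and donor/recipient replicates.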

[6] = test system: S. aureus DSM 20231; test: as above
Outline: as §2

[7] = test system: S. aureus Newman; test: as above
Outline: as §2

[8] = test system: S. pneumoniae D39V; test: as above
Outline: as §2
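Wherever Bliss interaction score (quartile over a dose matrix) is given: first quartile when negative (synergy) and third quartile when positive (antagonism).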

CCCCCCCCCC(=O)N[C@@H](Cc1c[nH]c2ccccc12)C(=O)N[C@H](CC(N)=O)C(=O)N[C@@H](CC(=O)O)C(=O)N[C@@H]1C(=O)NCC(=O)N[C@@H](CCCN)C(=O)N[C@@H](CC(=O)O)C(=O)N[C@H](C)C(=O)N[C@@H](CC(=O)O)C(=O)NCC(=O)N[C@H](CO)C(=O)N[C@@H]([C@H](C)CC(=O)O)C(=O)N[C@@H](CC(=O)c2ccccc2N)C(=O)O[C@@H]1C [Daptomycin] + CC1=C\[C@@H](O)CC(=O)Cc2nc(co2)C(=O)N2CCC=C2C(=O)O[C@H](C(C)C)[C@H](C)/C=C/C(=O)NC\C=C\1 [Virginiamycin M1]
fitness
Settings | first compound 0.125 µg/mL | first compound 0.25 µg/mL | first compound 0.5 µg/mL | first compound 1 µg/mL | first compound 2 µg/mL | first compound 4 µg/mL
[1], partner 0.0625 µg/mL | 0.946 | 0.924 | 0.894 | – | – | –
[1], partner 0.125 µg/mL | 0.92 | 0.931 | 0.862 | – | – | –
[1], partner 0.25 µg/mL | 0.93 | 0.934 | 0.891 | – | – | –
[2], partner 0.0625 µg/mL | – | – | ≥ 1 | ≥ 1 | 0.966 | –
[2], partner 0.125 µg/mL | – | – | ≥ 1 | ≥ 1 | 0.959 | –
[2], partner 0.25 µg/mL | 0.944 | 0.918 | ≥ 1 | ≥ 1 | 0.972 | –
[3], partner 0.0625 µg/mL | ≥ 1 | ≥ 1 | 0.981 | – | – | –
[3], partner 0.125 µg/mL | ≥ 1 | ≥ 1 | 0.994 | – | – | –
[3], partner 0.25 µg/mL | 0.984 | 0.999 | 0.975 | – | – | –
[4], partner 0.5 µg/mL | – | – | – | 0.991 | 0.984 | 0.976
[4], partner 1 µg/mL | – | – | – | 0.992 | ≥ 1 | 0.997
[4], partner 2 µg/mL | – | – | – | 0.909 | 0.927 | 0.919

one replicate
Settings | fitness
[1], first compound 1 µg/mL, partner 0.0625 µg/mL | 0.702
[1], first compound 1 µg/mL, partner 0.125 µg/mL | 0.698
[1], first compound 1 µg/mL, partner 0.25 µg/mL | 0.765
[2], first compound 0.125 µg/mL, partner 0.0625 µg/mL | 0.898
[2], first compound 0.125 µg/mL, partner 0.125 µg/mL | ≥ 1
[2], first compound 0.125 µg/mL, partner 0.5 µg/mL | 0.906
[2], first compound 0.125 µg/mL, partner 1 µg/mL | 0.887
[2], first compound 0.25 µg/mL, partner 0.0625 µg/mL | 0.855
[2], first compound 0.25 µg/mL, partner 0.125 µg/mL | ≥ 1
[2], first compound 0.25 µg/mL, partner 0.5 µg/mL | 0.92
[2], first compound 0.25 µg/mL, partner 1 µg/mL | 0.838
[2], first compound 0.5 µg/mL, partner 0.5 µg/mL | 0.908
[2], first compound 0.5 µg/mL, partner 1 µg/mL | 0.848
[3], first compound 0.5 µg/mL, partner 0.5 µg/mL | 0.894
[3], first compound 0.5 µg/mL, partner 1 µg/mL | ≥ 1
[3], first compound 0.5 µg/mL, partner 2 µg/mL | 0.882
[3], first compound 1 µg/mL, partner 0.5 µg/mL | 0.864
[3], first compound 1 µg/mL, partner 1 µg/mL | 0.948
[3], first compound 1 µg/mL, partner 2 µg/mL | 0.875
[3], first compound 2 µg/mL, partner 0.5 µg/mL | 0.921
[3], first compound 2 µg/mL, partner 1 µg/mL | 0.989
[3], first compound 2 µg/mL, partner 2 µg/mL | 0.856
[4], first compound 1 µg/mL, partner 0.15 µg/mL | 0.892
[4], first compound 1 µg/mL, partner 0.3 µg/mL | 0.754
[4], first compound 2 µg/mL, partner 0.15 µg/mL | 0.893
[4], first compound 2 µg/mL, partner 0.3 µg/mL | 0.84
[4], first compound 4 µg/mL, partner 0.15 µg/mL | 0.924
[4], first compound 4 µg/mL, partner 0.3 µg/mL | 0.877

Settings | Bliss interaction score
[5] | -0.0543
[6] | 0.0655
[7] | 0.0243
[8] | 0.0768

CCCCCCCCCC(=O)N[C@@H](Cc1c[nH]c2ccccc12)C(=O)N[C@H](CC(N)=O)C(=O)N[C@@H](CC(=O)O)C(=O)N[C@@H]1C(=O)NCC(=O)N[C@@H](CCCN)C(=O)N[C@@H](CC(=O)O)C(=O)N[C@H](C)C(=O)N[C@@H](CC(=O)O)C(=O)NCC(=O)N[C@H](CO)C(=O)N[C@@H]([C@H](C)CC(=O)O)C(=O)N[C@@H](CC(=O)c2ccccc2N)C(=O)O[C@@H]1C [Daptomycin] + CCN(CC)CCOC(=O)c1ccc(N)cc1 [Procaine]
fitness
Settings | first compound 0.125 µg/mL | first compound 0.25 µg/mL | first compound 0.5 µg/mL | first compound 1 µg/mL | first compound 2 µg/mL | first compound 4 µg/mL
[1], partner 85.5 µg/mL | 0.873 | 0.946 | 0.864 | – | – | –
[1], partner 171 µg/mL | 0.9 | 0.898 | 0.799 | – | – | –
[1], partner 342 µg/mL | 0.874 | 0.836 | 0.854 | – | – | –
[2], partner 85.5 µg/mL | 0.912 | 0.913 | 0.931 | 0.956 | 0.774 | –
[2], partner 171 µg/mL | ≥ 1 | ≥ 1 | ≥ 1 | 0.873 | 0.822 | –
[2], partner 342 µg/mL | 0.995 | 0.989 | ≥ 1 | 0.953 | 0.808 | –
[3], partner 85.5 µg/mL | ≥ 1 | ≥ 1 | ≥ 1 | – | – | –
[3], partner 171 µg/mL | 0.984 | ≥ 1 | ≥ 1 | – | – | –
[3], partner 342 µg/mL | 0.989 | 0.98 | ≥ 1 | – | – | –
[4], partner 85.5 µg/mL | – | – | – | 0.994 | 0.961 | 0.945
[4], partner 171 µg/mL | – | – | – | 0.98 | 0.97 | 0.951
[4], partner 342 µg/mL | – | – | – | 0.942 | 0.906 | 0.893

[1], first compound 1 µg/mL, one replicate
Settings | fitness
partner 85.5 µg/mL | 0.717
partner 171 µg/mL | 0.685
partner 342 µg/mL | 0.682

Settings | Bliss interaction score
[5] | -0.0699
[6] | 0.0381
[7] | 0.0445
[8] | 0.0859
